The target of the experiment is T1, human full-length MKNK1 (Homo sapiens, UniProt Q9BUB5, T385D).
T1 construct: GST (N); purchased Carna Biosciences 02-145; host or cells: insect cells, baculovirus expression system
T1 sequence (Q9BUB5 1-424 isoform Q9BUB5-2 T344D): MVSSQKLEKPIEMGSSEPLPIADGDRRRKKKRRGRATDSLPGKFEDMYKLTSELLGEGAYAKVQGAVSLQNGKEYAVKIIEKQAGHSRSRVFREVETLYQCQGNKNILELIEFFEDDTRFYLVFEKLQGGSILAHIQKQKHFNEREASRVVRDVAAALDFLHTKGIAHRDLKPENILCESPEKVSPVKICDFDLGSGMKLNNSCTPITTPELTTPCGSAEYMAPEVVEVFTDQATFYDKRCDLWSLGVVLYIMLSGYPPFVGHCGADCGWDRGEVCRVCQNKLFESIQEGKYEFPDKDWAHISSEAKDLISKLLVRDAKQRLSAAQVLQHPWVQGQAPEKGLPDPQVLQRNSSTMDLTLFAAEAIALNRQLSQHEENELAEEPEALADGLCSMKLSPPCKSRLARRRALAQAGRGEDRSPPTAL
The experiment in a line: MKNK1 kinase high ATP assay (TR-FRET). The experiment is classed as biochemical. To be noted: high ATP (2 mM), after preincubation with MKNK1; compounds of the present invention (Table 1a). The method, then:
MKNK1-inhibitory activity at high ATP of compounds of the present invention after their preincubation with MKNK1 was quantified employing the TR-FRET-based MKNK1 high ATP assay as described in the following paragraphs.
A recombinant fusion protein of Glutathione-S-Transferase (GST, N-terminally) and human full-length MKNK1 (amino acids 1-424 and T344D of accession number BAA 19885.1), expressed in insect cells using baculovirus expression system and purified via glutathione sepharose affinity chromatography, was purchased from Carna Biosciences (product no 02-145) and used as enzyme. As substrate for the kinase reaction the biotinylated peptide biotin-Ahx-IKKRKLTRRKSLKG (C-terminus in amide form) was used, which can be purchased e.g. from the company Biosyntan (Berlin-Buch, Germany).
For the assay 50 nL of a 100 fold concentrated solution of the test compound in DMSO was pipetted into a black low volume 384 well microtiter plate (Greiner Bio-One, Frickenhausen, Germany), 2 μL of a solution of MKNK1 in aqueous assay buffer [50 mM HEPES pH 7.5, 5 mM MgCl2, 1.0 mM dithiothreitol, 0.005% (v/v) Nonidet-P40 (Sigma)] was added and the mixture was incubated for 15 min at 22° C. to allow pre-binding of the test compounds to the enzyme before the start of the kinase reaction. Then the kinase reaction was started by the addition of 3 μL of a solution of adenosine-tri-phosphate (ATP, 3.3 mM=>final conc. in the 5 μL assay volume is 2 mM) and substrate (0.1 μM=>final conc. in the 5 μL assay volume is 0.06 μM) in assay buffer and the resulting mixture was incubated for a reaction time of 30 min at 22° C. The concentration of MKNK1 was adjusted depending of the activity of the enzyme lot and was chosen appropriate to have the assay in the linear range, typical concentrations were in the range of 0.003 μg/mL. The reaction was stopped by the addition of 5 μL of a solution of TR-FRET detection reagents (5 nM streptavidine-XL665 [Cisbio Bioassays, Codolet, France] and 1 nM anti-ribosomal protein […] (pSer236)-antibody from Invitrogen [#44921G] and 1 nM LANCE EU-W1024 labeled ProteinG [Perkin-Elmer, product no. AD0071]) in an aqueous EDTA-solution (100 mM EDTA, 0.1% (w/v) bovine serum albumin in 50 mM HEPES pH 7.5).
The resulting mixture was incubated for 1 h at 22° C. to allow the formation of complex between the phosphorylated biotinylated peptide and the detection reagents. Subsequently the amount of phosphorylated substrate was evaluated by measurement of the resonance energy transfer from the Eu-chelate to the streptavidine-XL. Therefore, the fluorescence emissions at 620 nm and 665 nm after excitation at 350 nm were measured in a TR-FRET reader, e.g. a Rubystar (BMG Labtechnologies, Offenburg, Germany) or a Viewlux (Perkin-Elmer). The ratio of the emissions at 665 nm and at […] was taken as the measure for the amount of phosphorylated substrate. The data were normalised (enzyme reaction without inhibitor=0% inhibition, all other assay components but no enzyme=100% inhibition). […] Table 1a lists MKNK1 high ATP IC50 values of some compounds of the present invention.
In the case of `O=C(NCC1CCc2c(sc3ncnc(Nc4ccc5[nH]ncc5c4)c23)C1)[C@@H](O)Cc1ccccc1` (mixture of isomers) [Example 14, (2R)-2-Hydroxy-N-{[(7RS)-4-(1H-indazol-5-ylamino)-5,6,7,8-tetrahydro[1]benzothieno[2,3-d]pyrimidin-7-yl]methyl}-3-phenylpropanamide], the IC50 (in general, the concentration that gives 50% inhibition) was 17 nM. In turn, `N[C@@H](CCO)C(=O)NCC1CCc2c(sc3ncnc(Nc4ccc5[nH]ncc5c4)c23)C1` (mixture of isomers) [Example 16, N-{[(7RS)-4-(1H-Indazol-5-ylamino)-5,6,7,8-tetrahydro[1]benzothieno[2,3-d]pyrimidin-7-yl]methyl}-L-homoserinamide] returned an IC50 of 20.8 nM. Compound `COc1cc2[nH]ncc2cc1Nc1ncnc2sc3c(c12)CCC(CNC(=O)[C@@H](O)Cc1ccccc1)C3` (mixture of isomers) [Example 23, (2R)-2-Hydroxy-N-({(7RS)-4-[(6-methoxy-1H-indazol-5-yl)amino]-5,6,7,8-tetrahydro[1]benzothieno[2,3-d]pyrimidin-7-yl}methyl)-3-phenylpropanamide] yielded a 50% inhibitory concentration (IC50) of 5 nM.

In the case of `OCC1CCc2c(sc3ncnc(Nc4ccc5[nH]ncc5c4)c23)C1` (racemic) [Example 1, (RS)-[4-(1H-Indazol-5-ylamino)-5,6,7,8-tetrahydro[1]benzothieno[2,3-d]pyrimidin-7-yl]methanol], the IC50 worked out at 31.7 nM. On to `CC(C)(O)C1CCc2c(sc3ncnc(Nc4ccc5[nH]ncc5c4)c23)C1` (racemic) [Example 4, (RS)-2-[4-(1H-Indazol-5-ylamino)-5,6,7,8-tetrahydro[1]benzothieno[2,3-d]pyrimidin-7-yl]propan-2-ol], for which the midpoint of inhibition, the IC50, lay at 39.1 nM. Next, `O=P(OCC1CCc2c(sc3ncnc(Nc4ccc5[nH]ncc5c4)c23)C1)(Oc1ccccc1)Oc1ccccc1` (racemic) [Example 5, (RS)-[4-(1H-Indazol-5-ylamino)-5,6,7,8-tetrahydro[1]benzothieno[2,3-d]pyrimidin-7-yl]methyl diphenyl phosphate]: 205 nM; `[N-]=[N+]=NCC1CCc2c(sc3ncnc(Nc4ccc5[nH]ncc5c4)c23)C1` (racemic) [Example 6, (RS)-7-(Azidomethyl)-N-(1H-indazol-5-yl)-5,6,7,8-tetrahydro[1]benzothieno[2,3-d]pyrimidin-4-amine]: 124 nM; `NCC1CCc2c(sc3ncnc(Nc4ccc5[nH]ncc5c4)c23)C1` (racemic) [Example 7, (RS)-7-(Aminomethyl)-N-(1H-indazol-5-yl)-5,6,7,8-tetrahydro[1]benzothieno[2,3-d]pyrimidin-4-amine]: 155 nM.

Compound `CC(C)NC(=O)NCC1CCc2c(sc3ncnc(Nc4ccc5[nH]ncc5c4)c23)C1` (racemic) [Example 8, (RS)-1-{[4-(1H-Indazol-5-ylamino)-5,6,7,8-tetrahydro[1]benzothieno[2,3-d]pyrimidin-7-yl]methyl}-3-propan-2-ylurea] had a half-inhibitory concentration (IC50) of 34.4 nM. To `CC(C)OC(=O)NCC1CCc2c(sc3ncnc(Nc4ccc5[nH]ncc5c4)c23)C1` (racemic) [Example 9, (RS)-Propan-2-yl {[4-(1H-indazol-5-ylamino)-5,6,7,8-tetrahydro[1]benzothieno[2,3-d]pyrimidin-7-yl]methyl}carbamate] belongs 30.2 nM; to `CC(C)C(=O)NCC1CCc2c(sc3ncnc(Nc4ccc5[nH]ncc5c4)c23)C1` (racemic) [Example 10, (RS)—N-{[4-(1H-Indazol-5-ylamino)-5,6,7,8-tetrahydro[1]benzothieno[2,3-d]pyrimidin-7-yl]methyl}-2-methylpropanamide], 11 nM; to `CC(C)S(=O)(=O)NCC1CCc2c(sc3ncnc(Nc4ccc5[nH]ncc5c4)c23)C1` (racemic) [Example 11, (RS)—N-{[4-(1H-Indazol-5-ylamino)-5,6,7,8-tetrahydro[1]benzothieno[2,3-d]pyrimidin-7-yl]methyl}propane-2-sulfonamide], 16.4 nM. To `CC(O)C(=O)NCC1CCc2c(sc3ncnc(Nc4ccc5[nH]ncc5c4)c23)C1` (racemic) [Example 12, (2RS)-2-Hydroxy-N-{[(7RS)-4-(1H-indazol-5-ylamino)-5,6,7,8-tetrahydro[1]benzothieno[2,3-d]pyrimidin-7-yl]methyl}propanamide] belongs 19.6 nM; to `CC(C)(O)C(=O)NCC1CCc2c(sc3ncnc(Nc4ccc5[nH]ncc5c4)c23)C1` (racemic) [Example 13, (RS)-2-Hydroxy-N-{[4-(1H-indazol-5-ylamino)-5,6,7,8-tetrahydro[1]benzothieno[2,3-d]pyrimidin-7-yl]methyl}-2-methylpropanamide], 12.4 nM; to `COc1cc2[nH]ncc2cc1Nc1ncnc2sc3c(c12)CCC(CO)C3` (racemic) [Example 17, (RS)-{4-[(6-Methoxy-1H-indazol-5-yl)amino]-5,6,7,8-tetrahydro[1]benzothieno[2,3-d]pyrimidin-7-yl}methanol], 3.2 nM. Next, `COc1cc2[nH]ncc2cc1Nc1ncnc2sc3c(c12)CCC(CN=[N+]=[N-])C3` (racemic) [Example 18, (RS)-7-(Azidomethyl)-N-(6-methoxy-1H-indazol-5-yl)-5,6,7,8-tetrahydro[1]benzothieno[2,3-d]pyrimidin-4-amine]: 23.9 nM.

The compound `COc1cc2[nH]ncc2cc1Nc1ncnc2sc3c(c12)CCC(CN)C3` (racemic) [Example 19, (RS)-7-(aminomethyl)-N-(6-methoxy-1H-indazol-5-yl)-5,6,7,8-tetrahydro[1]benzothieno[2,3-d]pyrimidin-4-amine] had an IC50 of 6.2 nM.

As for `COc1cc2[nH]ncc2cc1Nc1ncnc2sc3c(c12)CCC(CNC(=O)NC(C)C)C3` (racemic) [Example 20, (RS)-1-({4-[(6-Methoxy-1H-indazol-5-yl)amino]-5,6,7,8-tetrahydro[1]benzothieno[2,3-d]pyrimidin-7-yl}methyl)-3-propan-2-ylurea], the IC50 stood at 3.1 nM. `COc1cc2[nH]ncc2cc1Nc1ncnc2sc3c(c12)CCC(CNC(=O)C(C)C)C3` (racemic) [Example 21, (RS)—N-({4-[(6-Methoxy-1H-indazol-5-yl)amino]-5,6,7,8-tetrahydro[1]benzothieno[2,3-d]pyrimidin-7-yl}methyl)-2-methylpropanamide] displayed an IC50 of 2.1 nM.

Consider `COc1cc2[nH]ncc2cc1Nc1ncnc2sc3c(c12)CCC(CNC(=O)C(C)(C)O)C3` (racemic) [Example 22, (RS)-2-Hydroxy-N-({4-[(6-methoxy-1H-indazol-5-yl)amino]-5,6,7,8-tetrahydro[1]benzothieno[2,3-d]pyrimidin-7-yl}methyl)-2-methylpropanamide], for which it took 4 nM to reach half-maximal inhibition (IC50).

On to `Cc1cc2[nH]ncc2cc1Nc1ncnc2sc3c(c12)CCC(C)C3` (racemic) [Example 25, (RS)-7-Methyl-N-(6-methyl-1H-indazol-5-yl)-5,6,7,8-tetrahydro[1]benzothieno[2,3-d]pyrimidin-4-amine], for which the 50% inhibitory concentration (IC50) was 124 nM. The compound `CC1CCc2c(sc3ncnc(Nc4cc5cn[nH]c5cc4Cl)c23)C1` (racemic) [Example 26, (RS)—N-(6-Chloro-1H-indazol-5-yl)-7-methyl-5,6,7,8-tetrahydro[1]benzothieno[2,3-d]pyrimidin-4-amine] had an IC50 of 327 nM. Compound `COc1cc2[nH]ncc2cc1Nc1ncnc2sc3c(c12)CCC(C)C3` (racemic) [Example 27, (RS)—N-(6-Methoxy-1H-indazol-5-yl)-7-methyl-5,6,7,8-tetrahydro[1]benzothieno[2,3-d]pyrimidin-4-amine] yielded an IC50 of 66.3 nM. Turning to `CC1CCc2c(sc3ncnc(Nc4cc5cn[nH]c5cc4F)c23)C1` (racemic) [Example 28, (RS)—N-(6-Fluoro-1H-indazol-5-yl)-7-methyl-5,6,7,8-tetrahydro[1]benzothieno[2,3-d]pyrimidin-4-amine], half-maximal inhibition (IC50) required 67.1 nM.
